Source: PMC3600326, “Design, Synthesis, and Evaluation of New Tripeptides as COX-2 Inhibitors” (Journal of Amino Acids, 2013)
Residues, ends and D or L forms follow the SMILES beside them.

How the values were obtained:
hCOX-1 = biological target: T1, hCOX-1 (Homo sapiens, UniProt P23219); assay: hCOX activity, TMPD oxidation with AA as substrate, COX-1 from human platelet microsomes; type: biochemical; conditions: means ± SEM from five experiments; *** = no active at 500 μM
T1 construct: COX-1 from human platelet microsomes; from tissue; host or cells: human platelets (microsomes) from donor buffy coat
Procedure: Washed human platelets were prepared from blood anticoagulated with citrate-phosphate-dextrose, which was obtained from Centro de Transfusion de Galicia (Santiago de Compostela, Spain).
The upper layer containing platelets (platelet-rich plasma) was removed and centrifuged at 1000 g for 18 min. The resulting platelet pellet was recovered, resuspended with washing buffer, and centrifuged again at 1000 g for 15 min. Finally, the platelet pellet from this step was resuspended in a modified Tyrode-HEPES buffer (HEPES 10 mM; NaCl 140 mM; KCl 3 mM; MgCl2 0.5 mM; NaHCO3 5 mM; glucose 10 mM; pH 7.4) to afford a cell density of 3–3.5·10^8 platelet/mL. The calcium concentration in the extracellular medium was 2 mM [13].
(§1) The potential effects of the test drugs on total hCOX activity (bis-dioxygenase and peroxidase reactions) were investigated by measuring their effects on the oxidation of N,N,N′,N′-tetramethyl-p-phenylenediamine (TMPD) to […], using AA as common substrate for both hCOX-1 and hCOX-2, microsomal COX-2 prepared from insect cells (Sf21 cells) infected with recombinant baculovirus containing cDNA inserts for hCOX-2 (Sigma Aldrich Química S.A., Alcobendas, Spain), and COX-1 from human platelet microsomes (obtained as described in the above paragraph since, unlike hCOX-2, hCOX-1 is not available commercially).
(§2) Results shown in Table 3 are expressed as means ± SEM from five experiments. Means were compared by one-way analysis of variance (ANOVA) followed by Dunnett's post-hoc test.
(§3) This regression was performed using the data obtained with 4–6 different concentrations of each compound assayed, which inhibited the enzymatic activity of COX control isoform between 20 and 80%.

hCOX-2 = biological target: T2, hCOX-2 (Homo sapiens, UniProt P35354); assay: hCOX activity, TMPD oxidation with AA as substrate, microsomal recombinant hCOX-2 from Sf21 insect cells; type: biochemical; conditions: for IC50: means ± SEM from five experiments, *** = no active at 500 μM, read-out: COX-2 (IC50); for Ratio, index of selectivity SI = [IC50(COX-2)]/[IC50(COX-1)]: COX-2 over COX-1, bounds use the highest concentration tested
T2 construct: purchased Sigma Aldrich Química S.A., Alcobendas, Spain; host or cells: Sf21 insect cells infected with recombinant baculovirus
T2 sequence (P35354 18-604): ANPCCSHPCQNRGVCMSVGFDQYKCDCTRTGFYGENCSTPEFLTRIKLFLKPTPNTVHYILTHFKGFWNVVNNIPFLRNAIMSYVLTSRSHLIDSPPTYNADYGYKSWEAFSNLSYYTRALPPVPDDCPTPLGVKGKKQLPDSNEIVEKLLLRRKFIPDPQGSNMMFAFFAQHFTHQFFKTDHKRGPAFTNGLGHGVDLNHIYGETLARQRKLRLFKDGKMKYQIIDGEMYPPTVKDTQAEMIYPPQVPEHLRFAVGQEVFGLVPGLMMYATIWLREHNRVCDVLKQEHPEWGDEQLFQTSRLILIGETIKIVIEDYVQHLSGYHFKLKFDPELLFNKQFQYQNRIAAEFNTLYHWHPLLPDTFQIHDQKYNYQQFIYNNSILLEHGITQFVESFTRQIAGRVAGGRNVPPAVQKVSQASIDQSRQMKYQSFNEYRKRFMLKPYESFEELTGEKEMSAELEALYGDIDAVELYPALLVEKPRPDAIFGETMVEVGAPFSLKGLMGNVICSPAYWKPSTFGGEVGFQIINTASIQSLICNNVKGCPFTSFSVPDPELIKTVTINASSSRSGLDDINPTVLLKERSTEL
From the text: as §1, §2, §3

COX-2 = tested on: COX-2; set-up: method as in PMID 17640617; conditions: ELISA test; cited from earlier work

T1 sequence (P23219 24-599): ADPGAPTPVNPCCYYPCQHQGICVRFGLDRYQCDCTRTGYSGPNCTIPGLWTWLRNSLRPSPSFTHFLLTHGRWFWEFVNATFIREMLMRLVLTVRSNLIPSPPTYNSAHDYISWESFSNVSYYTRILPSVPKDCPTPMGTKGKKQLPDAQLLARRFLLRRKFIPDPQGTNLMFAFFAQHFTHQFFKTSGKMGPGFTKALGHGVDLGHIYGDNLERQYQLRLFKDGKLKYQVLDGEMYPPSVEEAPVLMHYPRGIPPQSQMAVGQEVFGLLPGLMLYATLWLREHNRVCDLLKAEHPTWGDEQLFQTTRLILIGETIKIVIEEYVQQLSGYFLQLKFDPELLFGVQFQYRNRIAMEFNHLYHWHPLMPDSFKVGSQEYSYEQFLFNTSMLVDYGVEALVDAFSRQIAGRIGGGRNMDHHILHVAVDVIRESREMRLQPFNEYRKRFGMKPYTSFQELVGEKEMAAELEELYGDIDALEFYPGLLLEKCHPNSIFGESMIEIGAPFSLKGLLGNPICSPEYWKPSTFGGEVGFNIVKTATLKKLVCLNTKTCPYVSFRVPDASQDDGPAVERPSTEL

| Compound | IC50 (hCOX-1) [µM] | IC50 (hCOX-2) [µM] | Ratio, index of selectivity SI = [IC50(COX-2)]/[IC50(COX-1)] (hCOX-2) | inhibition of COX-2 activity (COX-2) |
| --- | --- | --- | --- | --- |
| N=C(N)NCCC[C@H](NC(=O)[C@H](CCC(=O)O)NC(=O)CN)C(=O)O [Peptide S4, GER] (H-Gly-Glu-Arg-OH) | 99.3 ± 1.14 | 80.6 ± 2.14 | 0.8111 | – |
| C[C@H](NC(=O)[C@H](CCCNC(=N)N)NC(=O)[C@@H](N)CCC(=O)O)C(=O)O [Peptide S2, ERA] (H-Glu-Arg-Ala-OH) | 143 ± 2.57 | 121 ± 2.33 | 0.8443 | – |
| CSCC[C@H](NC(=O)CN)C(=O)N[C@@H](CC(=O)O)C(=O)O [Peptide S1, Gly-Met-Asp] (H-Gly-Met-Asp-OH) | 150 ± 2.34 | 94 ± 2.59 | 0.6255 | – |
| N=C(N)NCCC[C@H](NC(=O)[C@@H](N)CC(=O)O)C(=O)N[C@@H](CS)C(=O)O [Peptide S5, DRC] (H-Asp-Arg-Cys-OH) | 161 ± 2.57 | 100 ± 2.33 | 0.6195 | – |
| WCS | – | – | – | more than 85% |

Continued, in another order:

| IC50 (hCOX-1) [µM] | IC50 (hCOX-2) [µM] | Ratio, index of selectivity SI = [IC50(COX-2)]/[IC50(COX-1)] (hCOX-2) | Compound | inhibition of COX-2 activity (COX-2) |
| --- | --- | --- | --- | --- |
| 221.6 ± 1.04 | 68.3 ± 5.43 | – | C[C@H](N)C(=O)N[C@@H](CCC(=O)O)C(=O)N[C@@H](CCCNC(=N)N)C(=O)O [Peptide S9, AER] (H-Ala-Glu-Arg-OH) | – |
| 122 ± 3.78 | 91.7 ± 2.98 | 0.7484 | CC[C@H](C)[C@H](NC(=O)[C@H](Cc1c[nH]cn1)NC(=O)[C@@H](N)CCCCN)C(=O)O [Peptide S8, KHI] (H-Lys-His-Ile-OH) | – |
| 152 ± 5.18 | 94.9 ± 2.12 | 0.6225 | NCC(=O)N[C@@H](Cc1c[nH]cn1)C(=O)N[C@@H](CCC(=O)O)C(=O)O [Peptide S3, Gly-His-Glu] (H-Gly-His-Glu-OH) | – |
| 93.8 ± 6.55 | > 500 | – | COc1ccc(-c2nc(C(=O)N3CCN(C)CC3)sc2-c2ccc(OC)cc2)cc1 [FR122047, reference compound] | – |
| 99.1 ± 1.55 | 79.2 ± 2.15 | 0.7991 | C[C@H](N)C(=O)NCC(=O)N[C@@H](CCCNC(=N)N)C(=O)O [Peptide S10, AGR] (H-Ala-Gly-Arg-OH) | – |
| 102 ± 1.14 | 91.2 ± 2.41 | 0.8914 | C[C@H](N)C(=O)N[C@@H](CCCNC(=N)N)C(=O)N[C@@H](C)C(=O)O [Peptide S6, ARA] (H-Ala-Arg-Ala-OH) | – |
| 100 ± 2.19 | 88.2 ± 3.01 | 0.8792 | N=C(N)NCCC[C@H](NC(=O)[C@H](CCC(=O)O)NC(=O)[C@@H]1CCCN1)C(=O)O [Peptide S7, PER] (H-Pro-Glu-Arg-OH) | – |
